The values below come from patent publication US20060211575A1, “CONTROL FOR PLANT AND PLANT PRODUCT PATHOGENS” (W. NEUDORFF GMBH KG, priority 2005, published 2006).

Holding throughout (assay type): in vivo
The subject of test [1] is rust (Cronartium ribicola). Briefly: Field test of betaines to control rust on black currants. Particulars: 0.10% ai, black currant, resprayed every 7 to 10 days. An excerpt: The purpose of this test was to evaluate 6 betaines for controlling rust (Cronartium ribicola) on black currant. Following formation of compositions of Coco betaine, C16 betaine, C18:1 betaine, Coco amidopropyl betaine, C18:1 amidopropyl betaine, and Coco sulfo betaine having varying betaine concentrations (using the commercially available forms of the betaines as discussed herein and a water solvent), and a copper octanoate standard (formed from a commercially available form entitled “Soap Shield” from Gardens Alive, Ind., USA), the compositions/solution were sprayed to run off onto eight-year-old black currants. Every treatment had nine plants, and the plants were resprayed every 7 to 10 days.

The test system of test [2] is powdery mildew (Sphaerotheca fuliginea). Briefly: Greenhouse test of betaines for controlling powdery mildew on dandelion. Here is the method:
The purpose of this test was to evaluate the control of powdery mildew (Sphaerotheca fuliginea) on dandelion (Taraxacum officinale). Compositions of C12 betaine, Coco betaine, C16 betaine, C18:1 betaine, Coco amidopropyl betaine, C18:1 amidopropyl betaine, and Coco sulfo betaine were formed using the commercially available forms of the betaines as disclosed herein. Additionally, a sulfur standard was prepared using a commercially available form of sulfur (Red Ball EM-53) from International Chem. Inc., USA. For each treatment, twelve 20 cm diameter dandelions were used, and at the start of the test, all of the leaves were trimmed off of the plants. The test evaluated disease development on fully formed leaves. Each composition was sprayed to run off the plants, and resprayed 3 times every 7 days. The plants were also reinoculated by placing diseased dandelions amongst the test plants.

Test [3] concerns rose blackspot (Diplocarpon rosae). In words: Field test of betaines to control blackspot on Altissimo roses. The note with it: 0.2%. An excerpt: The purpose of this test was to evaluate various betaines for controlling rose blackspot (Diplocarpon rosae) on Altissimo roses under field conditions. Following formation of compositions of cetyl betaine, cocobetaine, and coco amidopropyl betaine using the commercially available forms of the betaines as disclosed herein as well as formation of a standard 0.2% sulfur solution, the compositions/solution were sprayed to run off onto mature Altissimo rose plants. Nine plants were used in each treatment, and the plants were resprayed every 7 to 10 days for over a 100 day period.
Table 1, below, illustrates the results obtained from treatments of cetyl betaine at various concentrations ranging from about 0.020% ai to 0.100% ai, as well as cocobetaine at a 0.05% ai concentration and coco amiodopropyl betaine at a 0.10% ai concentration.

With `CCCCCCCC/C=C\CCCCCCCC(=O)NCCC[N+](C)(C)CC(=O)[O-]` [C18:1 amidopropyl betaine, oleamidopropyl betaine], the “Rust Sori Per 9 Plants” value in test [1] is recorded as 2121. In test [2] (0.1% ai), the “Leaf Area Colonized by Powdery Mildew (%)” value (“Leaf Area Colonized … (%)” for short) was found to be 0.9%.
Consider `CCCCCCCC/C=C\CCCCCCCC[N+](C)(C)CC(=O)[O-]` [C18:1 betaine, oleyl betaine], for which the “Rust Sori Per 9 Plants” value in test [1] amounted to 550. Also, the “Leaf Area Colonized … (%)” value in test [2] (0.1% ai) was found to be 2.3%.
With `S1SSSSSSS1` [Sulfur], the “Leaflets with Blackspot (%)” value in test [3] (75 DAT) is 0.8%; in test [3] (102 DAT), 1.5%. The “Leaf Area Colonized … (%)” value in test [2] (0.2% ai) is on record as 0.0%.
With Copper octanoate [reference compound], in test [1], the “Rust Sori Per 9 Plants” value stood at 135.
